Test results taken from ChEMBL document CHEMBL2401728, “An unexpected Dimroth rearrangement leading to annelated thieno[3,2-d][1,2,3]triazolo[1,5-a]pyrimidines with potent antitumor activity” (Eur J Med Chem, 2013).

Key:
Type in all cases: functional
[1] = tested on: SK-OV-3; assay: Cytotoxicity against human SKOV3 cells assessed as cellular growth at 10 uM after 48 hrs by SRB assay relative to control
[2] = tested on: SN12C; assay: Cytotoxicity against human SN12C cells assessed as cellular growth at 1 uM after 48 hrs by SRB assay relative to control
[3] = tested on: MDA-MB-231; assay: Cytotoxicity against human MDA-MB-231 cells after 48 hrs by SRB assay; conditions: MDA-MB-231, 48 h
[4] = tested on: A498; assay: Cytotoxicity against human A498 cells assessed as cellular growth at 10 uM after 48 hrs by SRB assay relative to control
[5] = tested on: IGROV-1; assay: Cytotoxicity against human IGROV1 cells assessed as cellular growth at 100 uM after 48 hrs by SRB assay relative to control
[6] = Cytotoxicity against human NCI-ADR-RES cells assessed as cellular growth at 1 uM after 48 hrs by SRB assay relative to control
[7] = tested on: SR; assay: Cytotoxicity against human SR cells assessed as cellular growth at 1 uM after 48 hrs by SRB assay relative to control
[8] = tested on: SNB-19; assay: Cytotoxicity against human SNB19 cells assessed as cellular growth at 0.1 uM after 48 hrs by SRB assay relative to control
[9] = tested on: SW-620; assay: Cytotoxicity against human SW620 cells after 48 hrs by SRB assay; conditions: SW-620, 48 h
[10] = tested on: TK-10; assay: Cytotoxicity against human TK10 cells assessed as cellular growth at 0.01 uM after 48 hrs by SRB assay relative to control
[11] = tested on: CCRF-CEM; assay: Cytotoxicity against human CCRF-CEM cells assessed as cellular growth at 0.01 uM after 48 hrs by SRB assay relative to control
[12] = tested on: DU-145; assay: Cytotoxicity against human DU145 cells assessed as cellular growth at 0.1 uM after 48 hrs by SRB assay relative to control
[13] = tested on: HOP-62; assay: Cytotoxicity against human HOP62 cells assessed as cellular growth at 0.01 uM after 48 hrs by SRB assay relative to control
[14] = Cytotoxicity against human EKVX cells assessed as cellular growth at 100 uM after 48 hrs by SRB assay relative to control
[15] = tested on: COLO 205; assay: Cytotoxicity against human COLO205 cells assessed as cellular growth at 100 uM after 48 hrs by SRB assay relative to control
[16] = tested on: OVCAR-3; assay: Cytotoxicity against human OVCAR3 cells assessed as cellular growth at 0.01 uM after 48 hrs by SRB assay relative to control
[17] = tested on: HOP-62; assay: Cytotoxicity against human HOP62 cells assessed as cellular growth at 1 uM after 48 hrs by SRB assay relative to control
[18] = tested on: UO-31; assay: Cytotoxicity against human UO31 cells after 48 hrs by SRB assay; conditions: UO-31, 48 h
[19] = tested on: SNB-19; assay: Cytotoxicity against human SNB19 cells assessed as cellular growth at 100 uM after 48 hrs by SRB assay relative to control
[20] = tested on: SW-620; assay: Cytotoxicity against human SW620 cells assessed as cellular growth at 0.01 uM after 48 hrs by SRB assay relative to control
[21] = tested on: HCT-15; assay: Cytotoxicity against human HCT15 cells assessed as cellular growth at 1 uM after 48 hrs by SRB assay relative to control
[22] = tested on: MCF7; assay: Cytotoxicity against human MCF7 cells assessed as cellular growth at 1 uM after 48 hrs by SRB assay relative to control
[23] = tested on: COLO 205; assay: Cytotoxicity against human COLO205 cells assessed as cellular growth at 0.1 uM after 48 hrs by SRB assay relative to control
[24] = tested on: SF-539; assay: Cytotoxicity against human SF539 cells assessed as cellular growth at 1 uM after 48 hrs by SRB assay relative to control
[25] = tested on: MDA-MB-435; assay: Cytotoxicity against human MDA-MB-435 cells assessed as cellular growth at 0.1 uM after 48 hrs by SRB assay relative to control
[26] = tested on: U-251; assay: Cytotoxicity against human U251 cells after 48 hrs by SRB assay; conditions: U-251, 48 h
[27] = tested on: OVCAR-4; assay: Cytotoxicity against human OVCAR4 cells after 48 hrs by SRB assay; conditions: OVCAR-4, 48 h
[28] = tested on: SF-539; assay: Cytotoxicity against human SF539 cells assessed as cellular growth at 0.1 uM after 48 hrs by SRB assay relative to control
[29] = tested on: NCI-H322M; assay: Cytotoxicity against human NCI-H322M cells assessed as cellular growth at 1 uM after 48 hrs by SRB assay relative to control
[30] = tested on: HOP-92; assay: Cytotoxicity against human HOP92 cells assessed as cellular growth at 0.01 uM after 48 hrs by SRB assay relative to control
[31] = tested on: SK-MEL-5; assay: Cytotoxicity against human SK-MEL-5 cells assessed as cellular growth at 0.01 uM after 48 hrs by SRB assay relative to control
[32] = tested on: OVCAR-8; assay: Cytotoxicity against human OVCAR8 cells assessed as cellular growth at 0.01 uM after 48 hrs by SRB assay relative to control
[33] = tested on: NCI-H460; assay: Cytotoxicity against human NCI-H460 cells assessed as cellular growth at 1 uM after 48 hrs by SRB assay relative to control
[34] = tested on: CCRF-CEM; assay: Cytotoxicity against human CCRF-CEM cells after 48 hrs by SRB assay
[35] = tested on: A498; assay: Cytotoxicity against human A498 cells assessed as cellular growth at 100 uM after 48 hrs by SRB assay relative to control
[36] = tested on: SK-OV-3; assay: Cytotoxicity against human SKOV3 cells assessed as cellular growth at 0.01 uM after 48 hrs by SRB assay relative to control
[37] = read-out: LC50 (the source's name)
[38] = read-out: pLC50 (the source's name) (converted)

O=C(O)CCCn1c2c(sc3ccccc32)c(=O)n2nnc(-c3ccccc3)c12
Activity [1]: 90.82%

O=C(CCCn1c2c(sc3ccccc32)c(=O)n2nnc(-c3ccccc3)c12)NCCc1c[nH]cn1
Activity [2]: 36% | GI50 ([3]; read-out: GI50): 1.88 µM | LC50 ([3]; read-out: LC50): 6.54 µM | TGI ([3]; read-out: TGI): 3.51 µM | GI50 ([3]; read-out: pGI50 (converted)): 1.86 µM | LC50 ([3]; read-out: pLC50 (converted)): 6.61 µM | TGI ([3]; read-out: pTGI (converted)): 3.47 µM | Activity [4]: -85% | Activity [5]: -63% | Activity [6]: 51% | Activity [7]: -18% | Activity [8]: 65% | GI50 ([9]; read-out: GI50): 0.024 µM | CC50 [9, 37]: 4.16 µM | TGI ([9]; read-out: TGI): 1.01 µM | GI50 ([9]; read-out: pGI50 (converted)): 0.024 µM | CC50 [9, 38]: 4.17 µM | TGI ([9]; read-out: pTGI (converted)): 1 µM | Activity [10]: 96% | Activity [11]: 56% | Activity [12]: 87% | Activity [13]: 112% | Activity [14]: -24% | Activity [15]: -100% | Activity [16]: 133% | Activity [17]: 67% | GI50 ([18]; read-out: GI50): 1.3 µM | CC50 [18, 37]: 5.22 µM | TGI ([18]; read-out: TGI): 2.61 µM | GI50 ([18]; read-out: pGI50 (converted)): 1.29 µM | CC50 [18, 38]: 5.25 µM | TGI ([18]; read-out: pTGI (converted)): 2.63 µM | Activity [19]: -84% | Activity [20]: 63% | Activity [21]: 29% | Activity [22]: 58% | Activity [23]: 60% | Activity [24]: -6% | Activity [25]: 69% | GI50 ([26]; read-out: GI50): 0.165 µM | CC50 [26, 37]: 4.3 µM | TGI ([26]; read-out: TGI): 1.85 µM | GI50 ([26]; read-out: pGI50 (converted)): 0.166 µM | CC50 [26, 38]: 4.27 µM | TGI ([26]; read-out: pTGI (converted)): 1.86 µM | GI50 ([27]; read-out: GI50): 1.83 µM | CC50 [27, 37]: 8.02 µM | TGI ([27]; read-out: TGI): 3.83 µM | GI50 ([27]; read-out: pGI50 (converted)): 1.82 µM | CC50 [27, 38]: 7.94 µM | TGI ([27]; read-out: pTGI (converted)): 3.8 µM | Activity [28]: 1% | Activity [29]: 90% | Activity [30]: 99% | Activity [31]: 101% | Activity [32]: 42% | Activity [33]: 75% | Activity [1]: -6% | GI50 ([34]; read-out: GI50): 0.0156 µM | CC50 [34, 37]: 5.29 µM | TGI ([34]; read-out: TGI): 0.29 µM | GI50 ([34]; read-out: pGI50 (converted)): 0.0155 µM | CC50 [34, 38]: 5.25 µM | TGI ([34]; read-out: pTGI (converted)): 0.288 µM | Activity [35]: -97% | Activity [36]: 108%

CN1CCN(CCCn2c3c(sc4ncccc43)c(=O)n3nnc(-c4ccccc4)c23)CC1
Activity [2]: 87% | GI50 ([3]; read-out: GI50): 1.7 µM | TGI ([3]; read-out: TGI): 3.51 µM | GI50 ([3]; read-out: pGI50 (converted)): 1.7 µM | TGI ([3]; read-out: pTGI (converted)): 3.55 µM | Activity [4]: 57% | Activity [5]: -75% | Activity [6]: 92% | Activity [7]: 104% | Activity [8]: 96% | GI50 ([9]; read-out: GI50): 1.68 µM | CC50 [9, 37]: 8.1 µM | TGI ([9]; read-out: TGI): 3.69 µM | GI50 ([9]; read-out: pGI50 (converted)): 1.7 µM | CC50 [9, 38]: 8.13 µM | TGI ([9]; read-out: pTGI (converted)): 3.72 µM | Activity [10]: 105% | Activity [11]: 109% | Activity [12]: 98% | Activity [13]: 97% | Activity [14]: -80% | Activity [15]: -86% | Activity [16]: 100% | Activity [17]: 97% | GI50 ([18]; read-out: GI50): 1.03 µM | CC50 [18, 37]: 5.94 µM | TGI ([18]; read-out: TGI): 2.47 µM | GI50 ([18]; read-out: pGI50 (converted)): 1.02 µM | CC50 [18, 38]: 5.89 µM | TGI ([18]; read-out: pTGI (converted)): 2.45 µM | Activity [19]: -42% | Activity [20]: 96% | Activity [21]: 89% | Activity [22]: 82% | Activity [23]: 89% | Activity [24]: 90% | Activity [25]: 99% | GI50 ([26]; read-out: GI50): 1.82 µM | TGI ([26]; read-out: TGI): 3.43 µM | GI50 ([26]; read-out: pGI50 (converted)): 1.82 µM | TGI ([26]; read-out: pTGI (converted)): 3.47 µM | GI50 ([27]; read-out: GI50): 1.87 µM | CC50 [27, 37]: 8.04 µM | TGI ([27]; read-out: TGI): 3.88 µM | GI50 ([27]; read-out: pGI50 (converted)): 1.86 µM | CC50 [27, 38]: 8.13 µM | TGI ([27]; read-out: pTGI (converted)): 3.89 µM | Activity [28]: 89% | Activity [29]: 90% | Activity [30]: 99% | Activity [31]: 96% | Activity [32]: 97% | Activity [33]: 95% | GI50 ([34]; read-out: GI50): 1.67 µM | CC50 [34, 37]: > 100 µM | TGI ([34]; read-out: TGI): 4.29 µM | GI50 ([34]; read-out: pGI50 (converted)): 1.66 µM | CC50 [34, 38]: > 100 µM | TGI ([34]; read-out: pTGI (converted)): 4.27 µM | Activity [35]: -92% | Activity [36]: 101%
